Measured values from ChEMBL document CHEMBL4837226, “Discovery of pyrrole derivatives for the treatment of glioblastoma and chronic myeloid leukemia” (Eur J Med Chem, 2021).
Structures can show the parent of a compound that is named as a salt.

Assays:
Tubulin = experiment: Inhibition of tubulin polymerization (unknown origin) assessed as reduction in tubulin assembly preincubated for 15 mins followed by GTP addition by spectrophotometric method; type: protein-complex assay, Homo sapiens
MCF7 = experiment: Cytotoxicity against human MCF7 cells assessed as cell growth inhibition measured after 96 hrs; type: functional, cell-based; conditions: MCF7, 96 h
Tubulin (Homo sapiens) [1] = target: T1, Tubulin (Homo sapiens) (UniProt P68371+Q9H4B7+P0DPH7+P68366+Q13509+Q71U36+P04350+Q3ZCM7+P07437+P68363+Q9BQE3+Q6PEY2+Q13885+Q9BVA1+Q9BUF5); experiment: Inhibition of [3H]Colchicine binding to tubulin (unknown origin) at 5 uM measured after 10 mins by DEAE-Cellulose filter method relative to control; type: protein-complex assay
KU812 cell line = experiment: Cytotoxicity against Bcr-Abl expressing human KU812 cells assessed as cell growth inhibition measured after 48 hrs by MTT assay; type: functional, cell-based; conditions: KU812, 48 h
KBM5 [2] = experiment: Cytotoxicity against Imatinib mesylate sensitive wild-type human KBM5 cells assessed as cell growth inhibition measured after 48 hrs by MTT assay; type: functional, cell-based; conditions: KBM5, 48 h
KBM5 [3] = experiment: Cytotoxicity against imatinib mesylate resistant wild-type human KBM5 cells expressing T315I mutant assessed as cell growth inhibition measured after 48 hrs by MTT assay; type: functional, cell-based; conditions: KBM5, 48 h
Tubulin (Homo sapiens) [4] = target: T1, Tubulin (Homo sapiens); experiment: Inhibition of [3H]Colchicine binding to tubulin (unknown origin) at 1 uM measured after 10 mins by DEAE-Cellulose filter method relative to control; type: protein-complex assay
U-87 MG [5] = experiment: Cytotoxicity against human U-87MG cells assessed as cell growth inhibition measured after 48 hrs by MTS colorimetric assay; type: functional, cell-based, U-87MG ATCC
[6] = Cytotoxicity against human U343MG cells assessed as cell growth inhibition by measuring maximum efficacy measured after 72 hrs by MTS colorimetric assay relative to control; type: functional; conditions: U-343MG
SW480 = experiment: Cytotoxicity against human SW480 cells assessed as cell growth inhibition measured after 48 hrs by XTT dye based assay; type: functional; conditions: SW480, 48 h
SW-620 = experiment: Cytotoxicity against human SW-620 cells assessed as cell growth inhibition measured after 48 hrs by XTT dye based assay; type: functional; conditions: SW-620, 48 h
U-87 MG [7] = experiment: Cytotoxicity against human U-87MG cells assessed as cell growth inhibition by measuring maximum efficacy measured after 48 hrs by MTS colorimetric assay relative to control; type: functional, U-87MG ATCC
[8] = Cytotoxicity against human U-343MG cells assessed as cell growth inhibition measured after 72 hrs by MTS colorimetric assay; type: functional, cell-based

COc1cc(C(=O)c2cn(-c3ccc(F)cc3)cc2-c2ccco2)cc(OC)c1OC
IC50 (Tubulin): 0.47 µM
IC50 (MCF7): 0.017 µM
inhibition (Tubulin (Homo sapiens) [1]): 82%

Cc1ccc(C(=O)Nc2ccc(CN3CCN(C)CC3)c(C(F)(F)F)c2)cc1C#Cc1cnc2cccnn12 [PONATINIB]
IC50 (KU812 cell line): 0.0085 µM
IC50 (KBM5 [2]): 0.0102 µM
IC50 (KBM5 [3]): 0.0106 µM

COc1cc(C(=O)c2cn(-c3cccc(C)c3)cc2-c2cccnc2)cc(OC)c1OC
IC50 (Tubulin): 0.74 µM
IC50 (MCF7): 0.052 µM
inhibition (Tubulin (Homo sapiens) [1]): 78%

COc1cc(C(=O)c2cn(-c3ccc(C)cc3)cc2-c2ccncc2)cc(OC)c1OC
IC50 (Tubulin): 0.44 µM
inhibition (Tubulin (Homo sapiens) [4]): 70%
IC50 (MCF7): 0.009 µM
inhibition (Tubulin (Homo sapiens) [1]): 94%

COc1cc(C(=O)c2cn(-c3cccc(C)c3)cc2-c2ccco2)cc(OC)c1OC
IC50 (Tubulin): 0.56 µM
IC50 (MCF7): 0.023 µM
inhibition (Tubulin (Homo sapiens) [1]): 80%

COc1cc(C(=O)c2cn(-c3cccc(C)c3)cc2-c2ccccn2)cc(OC)c1OC
IC50 (Tubulin): 0.78 µM
IC50 (MCF7): 0.14 µM
inhibition (Tubulin (Homo sapiens) [1]): 66%

COc1cc(C(=O)c2cn(-c3ccc(C)cc3)cc2-c2ncco2)cc(OC)c1OC
IC50 (Tubulin): 0.72 µM
inhibition (Tubulin (Homo sapiens) [4]): 45%
IC50 (MCF7): 0.042 µM
inhibition (Tubulin (Homo sapiens) [1]): 90%

COc1cc(C(=O)c2cn(-c3cccc(C)c3)cc2-c2nccs2)cc(OC)c1OC
IC50 (Tubulin): 0.49 µM
IC50 (MCF7): 0.02 µM
inhibition (Tubulin (Homo sapiens) [1]): 83%

COc1cc(C(=O)c2cn(-c3ccc(C)cc3)cc2-c2nccs2)cc(OC)c1OC
IC50 (Tubulin): 0.56 µM
inhibition (Tubulin (Homo sapiens) [4]): 63%
IC50 (MCF7): 0.014 µM
inhibition (Tubulin (Homo sapiens) [1]): 91%

COc1cc(C(=O)c2cn(-c3ccc(F)cc3)cc2-c2ccccn2)cc(OC)c1OC
IC50 (Tubulin): 0.82 µM
IC50 (MCF7): 0.073 µM
inhibition (Tubulin (Homo sapiens) [1]): 44%

COc1cc(C(=O)c2cn(-c3ccc(F)cc3)cc2-c2nccs2)cc(OC)c1OC
IC50 (Tubulin): 0.78 µM
IC50 (MCF7): 0.022 µM
inhibition (Tubulin (Homo sapiens) [1]): 69%

COc1cc(C(=O)c2cn(-c3ccc(C)cc3)cc2-c2ccco2)cc(OC)c1OC
IC50 (Tubulin): 0.46 µM
inhibition (Tubulin (Homo sapiens) [4]): 71%
IC50 (MCF7): 0.022 µM
inhibition (Tubulin (Homo sapiens) [1]): 92%

COc1cc(C(=O)c2cn(-c3ccc(C)cc3)cc2-c2cccnc2)cc(OC)c1OC
IC50 (Tubulin): 0.64 µM
inhibition (Tubulin (Homo sapiens) [4]): 58%
IC50 (MCF7): 0.019 µM
inhibition (Tubulin (Homo sapiens) [1]): 92%

COc1cc(C(=O)c2cn(-c3ccc(F)cc3)cc2-c2ccoc2)cc(OC)c1OC
IC50 (Tubulin): 0.38 µM
inhibition (Tubulin (Homo sapiens) [4]): 71%
IC50 (MCF7): 0.015 µM
inhibition (Tubulin (Homo sapiens) [1]): 87%

COc1cc(C(=O)c2cn(-c3ccc(C)cc3)cc2-c2ccoc2)cc(OC)c1OC
IC50 (Tubulin): 0.47 µM
inhibition (Tubulin (Homo sapiens) [4]): 71%
IC50 (MCF7): 0.018 µM
inhibition (Tubulin (Homo sapiens) [1]): 95%

COc1cc(C(=O)c2cn(-c3ccc(F)cc3)cc2-c2cccnc2)cc(OC)c1OC
IC50 (Tubulin): 0.56 µM
IC50 (MCF7): 0.039 µM
inhibition (Tubulin (Homo sapiens) [1]): 80%

COc1cc(C(=O)c2cn(-c3cccc(C)c3)cc2-c2ccncc2)cc(OC)c1OC
IC50 (Tubulin): 0.59 µM
IC50 (MCF7): 0.065 µM
inhibition (Tubulin (Homo sapiens) [1]): 88%

COc1cc(C(=O)c2cn(-c3ccc(F)cc3)cc2-c2ncco2)cc(OC)c1OC
IC50 (Tubulin): 1.4 µM
IC50 (MCF7): 0.093 µM
inhibition (Tubulin (Homo sapiens) [1]): 68%

COc1cc(C(=O)c2cn(-c3cccc(C)c3)cc2-c2ncco2)cc(OC)c1OC
IC50 (Tubulin): 0.72 µM
IC50 (MCF7): 0.075 µM
inhibition (Tubulin (Homo sapiens) [1]): 77%

COc1cc(C(=O)c2cn(-c3ccc(C)cc3)cc2-c2ccccn2)cc(OC)c1OC
IC50 (Tubulin): 0.46 µM
IC50 (MCF7): 0.036 µM
inhibition (Tubulin (Homo sapiens) [1]): 83%

COc1cc(C(=O)c2cn(-c3cccc(C)c3)cc2-c2ccoc2)cc(OC)c1OC
IC50 (Tubulin): 0.42 µM
inhibition (Tubulin (Homo sapiens) [4]): 64%
IC50 (MCF7): 0.021 µM
inhibition (Tubulin (Homo sapiens) [1]): 87%

COc1cc(C(=O)c2cn(-c3cccc(C)c3)cc2-c2ccsc2)cc(OC)c1OC
IC50 (Tubulin): 0.52 µM
IC50 (MCF7): 0.065 µM
inhibition (Tubulin (Homo sapiens) [1]): 74%

COc1cc(C(=O)c2cn(-c3ccc(F)cc3)cc2-c2ccncc2)cc(OC)c1OC
IC50 (KU812 cell line): 0.0124 µM
IC50 (KBM5 [2]): 0.0122 µM
IC50 (U-87 MG [5]): 0.0391 µM
IC50 (Tubulin): 0.58 µM
Emax [6]: 75.1%
IC50 (SW480): 0.934 µM
IC50 (SW-620): 0.0665 µM
IC50 (MCF7): 0.009 µM
inhibition (Tubulin (Homo sapiens) [1]): 87%
IC50 (KBM5 [3]): 0.0131 µM
Emax (U-87 MG [7]): 56%
IC50 [8]: 0.432 µM

COc1cc(C(=O)c2cn(-c3ccc(F)cc3)cc2-c2ccsc2)cc(OC)c1OC
IC50 (Tubulin): 0.55 µM
IC50 (MCF7): 0.015 µM
inhibition (Tubulin (Homo sapiens) [1]): 76%

Cc1ccc(NC(=O)c2ccc(CN3CCN(C)CC3)cc2)cc1Nc1nccc(-c2cccnc2)n1 [IMATINIB MESYLATE]
IC50 (KU812 cell line): 0.311 µM
IC50 (KBM5 [2]): 0.152 µM
IC50 (KBM5 [3]): 0.311 µM
